According to publication PMC11242993, “Evaluation of the Therapeutic Potential of Sulfonyl Urea Derivatives as Soluble Epoxide Hydrolase (sEH) Inhibitors” (Molecules, 2024):

How the values were obtained:
mice = test: LPS-induced acute lung injury (ALI) model; type: in vivo; conditions: 10 mg/kg i.p.
Experimental: LPS-induced acute lung injury induced by a single oropharyngeal instillation of lipopolysaccharide (LPS) (50 µg/mouse) in 16-week-old mice as described previously. Briefly, LPS (L4391, MilliporeSigma, Burlington, MA, USA) was dissolved in sterile saline and administered at 50 µg/mouse in 40 µL after anesthesia induced by ketamine/xylazine. The mice were studied 24 h after LPS or saline instillation.
BALF was collected from anesthetized mice by lavaging lungs two times with 0.8 mL Hanks’ balanced salt solution without calcium and magnesium (HBSS) (Sigma-Aldrich, St. Louis, MI, USA). Supernatants were collected as BALF for further analyses.
The number of cells in the BALF was estimated using an automated cell counter, the Countess II FL cell counter (Thermo Fisher Scientific Inc., Waltham, MA, USA).
Albumin levels were measured by the Mouse Albumin Elisa Assay kit (Cat # E99-134), which was obtained from Bethyl Laboratories. BALF samples from the LPS group were diluted at a 1:2000 ratio.
Total protein in BALF samples was measured using the Pierce BCA protein assay kit (Cat # 23225) as detailed in the product manual (Thermo Fisher Scientific).
The right middle lobe was immediately placed in an RNA later solution and stored at −80 °C until the RNA extraction procedure. RNA extraction was performed using RNeasy Mini Kits from Qiagen (Valencia, CA, USA). One microgram of total RNA was reverse transcribed to cDNA using an iScript cDNA synthesis kit (Bio-Rad, Hercules, CA, USA). Expression of the target genes was quantified using gene-specific primers and PowerSYBRGreen master mix (Thermo Fisher Scientific) in a QuantStudio 3 Real-Time PCR instrument (Thermo Fisher Scientific). Predesigned mouse IL-6 (QT00098875), TNF-α (QT00104006), IL-1β (QT01048355), CXCL1 (QT00115647), CCL2 (QT00167832), CXCL3 (QT00151599) and CXCL9 (QT00097062) primers were purchased from Qiagen (Valencia, CA, USA). Fold changes in gene expression relative to the housekeeping gene TATA-Box Binding Protein (Tbp, QT00198443) were determined. Gene expression values were calculated based on the […] method.

C57BL/6J male mice = test: Hot plate model; type: in vivo; conditions: 10 mg/kg i.p.
Experimental: Thermal nociception in the hot plate test was assessed with a commercially available apparatus (Hotplate Analgesia Meter, Columbus Instruments) consisting of a metal plate to a constant temperature of 55.0 ± 0.1 °C. Mice were put into the hot plate testing instrument to adapt for at least 15 min. The device was connected to a manually operated timer that recorded the amount of time the mouse spent on the heated surface before showing signs of nociception (e.g., licked its paws or jumped), the cut-off time was 60 s. The baseline (basic pain threshold, the response was more than 25 s, and the jumping mice were excluded.) was calculated as the mean of three readings recorded before testing at intervals of 15 min. The time course of latency was then determined at 15, 30, 45, 60, 90, and 120 min after compound treatment. Data were analyzed as time-course curves of the percentage of maximum effect MPE% = (post drug latency − baseline latency) × 100/(cut-off time − baseline latency). C57BL/6J male mice obtained from The Jackson Laboratory (Bar Harbor, ME, USA) weighing 28 g were used for the hot plate test. Animal procedures were conducted following the rules and regulations of the Institutional Animal Care and Use Committee of the National Institute on Alcohol Abuse and Alcoholism (NIAAA) under the protocols of LPS-GK1.

O=C(O)CCCCCCCCCCCNC(=O)NC12CC3CC(CC(C3)C1)C2 [AUDA, 12-(3-adamantan-1-ylureido)dodecanoic acid, reference compound]
effect on LPS-induced increase in total protein in BALF (mice): neither AUDA nor novel sEH inhibitors’ (4f and 4l) effect | number of cells in bronchoalveolar lavage (BAL) (mice): similarly attenuated the number of cells in BAL | LPS-induced lung gene expression of interleukin 1B (IL-1B) (mice; qPCR): attenuated | LPS-induced lung gene expression of interleukin 6 (IL-6) (mice; qPCR): attenuated | lung gene expression of CXCL1 (mice; qPCR): similarly attenuated | analgesic effect in hot plate assay (C57BL/6J male mice): none of the sEH inhibitors, including AUDA, showed any analgesic effect
